Measured values from patent US11492589B2, “Lactobacillus plantarum CJLP475 strain having antiviral and immunomodulatory effects and composition comprising the same” (CJ CHEILJEDANG CORPORATION, priority 2018, dated 2022).

Test system: Lactobacillus plantarum CJLP475 strain
Experiment: Antibiotic susceptibility test with antibiotic discs
Type: cell-based
Conditions: antibiotic discs on solid Mueller Hinton II medium, 37° C., 24 hours
Protocol: The CJLP475 strain was inoculated into a liquid MRS medium and subjected to a static culture at 37° C. for 24 hours. The thus-cultured bacteria were soaked in sterilized cotton swabs and smeared on a solid Mueller Hinton II medium (Difco), and then antibiotic discs were placed on the medium and incubated at 37° C. for 24 hours. Ampicillin, clindamycin, gentamicin, kanamycin, erythromycin, ampicillin/sulbactam, chloramphenicol, and streptomycin discs (Oxoid, UK) were used as antibiotic discs for the antibiotic test.

Going from `CC[C@H]1OC(=O)[C@H](C)[C@@H](O[C@H]2C[C@@](C)(OC)[C@@H](O)[C@H](C)O2)[C@H](C)[C@@H](O[C@@H]2O[C@H](C)C[C@H](N(C)C)[C@H]2O)[C@](C)(O)C[C@@H](C)C(=O)[C@H](C)[C@@H](O)[C@]1(C)O` [E15 (Erythromycin), Erythromycin] to `CCC[C@@H]1C[C@@H](C(=O)N[C@@H]([C@H]2O[C@H](SC)[C@H](O)[C@@H](O)[C@H]2O)[C@H](C)Cl)N(C)C1` [C30 (Clindamycin), Clindamycin], the “Radius of Growth Inhibition Area Centered Around Antibiotics” value falls from 9 mm to 8 mm.

First: Ampicillin/Sulbactam [SAM20 (Ampicillin/Sulbactam)]
Second: Gentamicin [CN120 (Gentamicin)]
The “Radius of Growth Inhibition Area Centered Around Antibiotics” value of the first is lower: 8 mm for the first, 9 mm for the second.

Going from `NC[C@H]1O[C@H](O[C@H]2[C@H](O)[C@@H](O[C@H]3O[C@H](CO)[C@@H](O)[C@H](N)[C@H]3O)[C@H](N)C[C@@H]2N)[C@H](O)[C@@H](O)[C@@H]1O` [K30 (Kanamycin), Kanamycin] to `[H]/N=C(/N)N[C@H]1[C@H](O)[C@@H](O)[C@H](O[C@@H]2O[C@@H](C)[C@](O)(C=O)[C@H]2O[C@@H]2O[C@@H](CO)[C@H](O)[C@@H](O)[C@@H]2NC)[C@@H](N/C(N)=N\[H])[C@@H]1O` [DA2 (Streptomycin), Streptomycin], the “Radius of Growth Inhibition Area Centered Around Antibiotics” value rises from 1.5 mm to 4 mm.

Going from `O=C(N[C@H](CO)[C@H](O)c1ccc([N+](=O)[O-])cc1)C(Cl)Cl` [S10 (Chloramphenicol), Chloramphenicol] to `CC1(C)S[C@@H]2[C@H](NC(=O)[C@H](N)c3ccccc3)C(=O)N2[C@H]1C(=O)O` [Amp10 (Ampicillin), Ampicillin], the “Radius of Growth Inhibition Area Centered Around Antibiotics” value rises from 3 mm to 7 mm.
